Measured values from patent US20160199351A1, “COMPOSITIONS AND METHODS FOR INHIBITING FUNGAL INFECTIONS” (priority 2015, published 2016).
In brackets after ≈: the same amount, converted by molar mass. Read-outs that look alike come from different tables or passages of the source.

Assays:
Aspergillus fumigatus = test: Recovery of Aspergillus fumigatus mycelia growth after removal of antifungal drugs (MTT); type: cell-based; settings: treated 12 hours, drug removed, 24 hours more
Fusarium oxysporum = test: MIC, CLSI M38-A2 broth dilution (Table 1); type: cell-based
Fusarium sp. = test: MIC (Table 5); type: cell-based; settings: Fusarium, read-out: MIC 100%
Lomentospora prolificans = test: MIC, CLSI M38-A2 broth dilution (Table 1); type: cell-based; settings: isolate LP1, 48 hours
Blastomyces dermatitidis [1] = test: MIC (Table 6); type: cell-based; settings: read-out: MIC VORI 100% 50%
Fusarium solani = test: MIC, CLSI M38-A2 broth dilution (Table 1); type: cell-based; settings: isolate FS1, 48 hours
Blastomyces dermatitidis [2] = test: MIC, macrodilution method (Table 1); type: cell-based; settings: 96 hours
Scedosporium sp. = test: MIC (Table 5)
Coccidioides sp. = test: microbe, parasite or virus in culture; type: cell-based; settings: Coccidioides
Scedosporium apiospermum = test: MIC, CLSI M38-A2 broth dilution (Table 1); type: cell-based
P. variotii = test: MIC (Table 5); settings: Paecilomyces variotii, read-out: MIC 100%
Paeceilomyces variotii = test: MIC, CLSI M38-A2 broth dilution (Table 1); type: cell-based; settings: isolate QC
Rhizopus oryzae [3] = test: MIC, CLSI M38-A2 broth dilution (Table 1); type: cell-based
Apophysomyces = test: MIC (Table 5); settings: 24 h
Rhizopus oryzae [4] = test: MIC (Table 5); settings: Rhizopus arrhizus, 24 h
C. parapsilosis = test: MIC against Candida species (Table 4); settings: 24 h
C. guilliermondii = test: MIC against Candida species (Table 4); settings: Meyerozyma guilliermondii, 24 h
C. glabrata = test: MIC against Candida species (Table 4); settings: Nakaseomyces glabratus, 24 h
Histoplasma capsulatum = type: cell-based; settings: 24-hour treatment
C. krusei = test: MIC against Candida species (Table 4); settings: Pichia kudriavzevii, 24 h
Cryptococcus neoformans = test: MIC against Cryptococcus neoformans (Table 4); settings: Cryptococcus neoformans, 72 h
Pneumocystis murina = test: In vitro ATP content of Pneumocystis (luciferin-luciferase assay)
Pneumocystis carinii = test: as above

Question: For `CC[C@H](C)C[C@H](C)CCCCCCCCC(=O)N[C@H]1C[C@@H](O)[C@@H](NCCN)NC(=O)[C@@H]2[C@@H](O)CCN2C(=O)[C@H]([C@H](O)CCN)NC(=O)[C@H]([C@H](O)[C@@H](O)c2ccc(O)cc2)NC(=O)[C@@H]2C[C@@H](O)CN2C(=O)[C@H]([C@@H](C)O)NC1=O` [caspofungin], which “recovery of mycelia growth after removal of drug” value (“recovery of mycelia growth” below) (Aspergillus fumigatus) is on record?
Answer: leaves mycelia viable

Question: With `C[C@@H](c1ncncc1F)[C@](O)(Cn1cncn1)c1ccc(F)cc1F` [VORI, Voriconazole, reference compound] as the compound, how does the “MIC 100%” value (Fusarium oxysporum; isolate FO1, 48 hours) read?
Answer: 16 gg/m1

Question: What about the “MIC 100%” value (Fusarium oxysporum; isolate FO2, 48 hours) of the same compound?
Answer: 16 gg/m1

Question: What about the MIC (Fusarium sp.; isolate F-1, 48/72 hrs) of the same compound?
Answer: 8 µg/mL (≈ 22.9 µM)

Question: And the MIC (Fusarium sp.; isolate F-2, 48/72 hrs)?
Answer: 8 µg/mL (≈ 22.9 µM)

Question: And the MIC (Fusarium sp.; isolate F-3, 48/72 hrs)?
Answer: > 16 µg/mL

Question: What about the “MIC 100%” value (Lomentospora prolificans) of the same compound?
Answer: 16 gg/m1

Question: And the MIC (Blastomyces dermatitidis [1]; isolate BD1, 72/192 hrs)?
Answer: ≤ 0.03 µg/mL

Question: What about the MIC (Blastomyces dermatitidis [1]; isolate BD2, 72/192 hrs) of the same compound?
Answer: 0.125 µg/mL (≈ 0.358 µM)

Question: What about the MIC (Blastomyces dermatitidis [1]; isolate BD3, 72/192 hrs) of the same compound?
Answer: 0.125 µg/mL (≈ 0.358 µM)

Question: And the “MIC 100%” value (Fusarium solani)?
Answer: 8 gg/m1

Question: What about the “MIC 100%” value (Blastomyces dermatitidis [2]; isolate BD1, macrodilution) of the same compound?
Answer: 0.125 gg/m1

Question: What about the “MIC 100%” value (Blastomyces dermatitidis [2]; isolate BD2, macrodilution) of the same compound?
Answer: ≦0.03 gg/m1

Question: What about the “MIC 100%” value (Blastomyces dermatitidis [2]; isolate BD3, macrodilution) of the same compound?
Answer: ≦0.03 gg/m1

Question: And the MIC (Scedosporium sp.; read-out: MIC 100%, isolate S-1, 48/72 hrs)?
Answer: 0.5 µg/mL (≈ 1.43 µM)

Question: What about the MIC (Scedosporium sp.; read-out: MIC 100%, isolate S-2, 48/72 hrs) of the same compound?
Answer: 16 µg/mL (≈ 45.8 µM)

Question: What about the MIC (Coccidioides sp.; read-out: MIC VORI 100% 50%, isolate COCCI-1, 72/192 hrs) of the same compound?
Answer: 0.125 µg/mL (≈ 0.358 µM)

Question: And the MIC (Coccidioides sp.; read-out: MIC VORI 100% 50%, isolate COCCI-2, 72/192 hrs)?
Answer: 0.25 µg/mL (≈ 0.716 µM)

Question: What about the MIC (Coccidioides sp.; read-out: MIC VORI 100% 50%, isolate COCCI-3, 72/192 hrs) of the same compound?
Answer: 0.125 µg/mL (≈ 0.358 µM)

Question: And the “MIC 100%” value (Scedosporium apiospermum; isolate SA1, 72 hours)?
Answer: 0.25 gg/m1

Question: What about the “MIC 100%” value (Scedosporium apiospermum; isolate SA2, 72 hours) of the same compound?
Answer: 0.125 gg/m1

Question: What about the “recovery of mycelia growth” value (Aspergillus fumigatus) of the same compound?
Answer: leaves mycelia viable

Question: What about the MIC (P. variotii) of the same compound?
Answer: 0.06 µg/mL (≈ 0.172 µM)

Question: What about the “MIC 100%” value (Paeceilomyces variotii) of the same compound?
Answer: 0.125 gg/m1

Question: Which results are given for `CC[C@@H]([C@H](C)O)n1ncn(-c2ccc(N3CCN(c4ccc(OC[C@@H]5CO[C@@](Cn6cncn6)(c6ccc(F)cc6F)C5)cc4)CC3)cc2)c1=O` [POS, Posaconazole, reference compound]?
Answer: MIC 100% (Lomentospora prolificans): 0.5 gg/m1; MIC 100% (Rhizopus oryzae [3]; isolate RO1, 24 hours): 1 gg/m1; MIC 100% (Rhizopus oryzae [3]; isolate RO2, 24 hours): 1 gg/m1; MIC 100% (Rhizopus oryzae [3]; isolate RO3, 24 hours): 1 gg/m1; MIC (Apophysomyces; read-out: MIC 100%, isolate AE-1, 24 hrs): 0.125 µg/mL (≈ 0.178 µM); MIC (Apophysomyces; read-out: MIC 100%, isolate AE-2, 24 hrs): 1 µg/mL (≈ 1.43 µM); MIC 100% (Scedosporium apiospermum; isolate SA2, 72 hours): 2 gg/m1; MIC (P. variotii; 24 h): 0.06 µg/mL (≈ 0.0856 µM); MIC (Rhizopus oryzae [4]; read-out: MIC 100%, isolate R-1, 24 hrs): 0.5 µg/mL (≈ 0.713 µM); MIC (Rhizopus oryzae [4]; read-out: MIC 100%, isolate R-2, 24 hrs): 0.5 µg/mL (≈ 0.713 µM); MIC (Rhizopus oryzae [4]; read-out: MIC 100%, isolate R-3, 24 hrs): 0.5 µg/mL (≈ 0.713 µM); MIC (Rhizopus oryzae [4]; read-out: MIC 100%, isolate R-4, 24 hrs): 0.125 µg/mL (≈ 0.178 µM); MIC (Rhizopus oryzae [4]; read-out: MIC 100%, isolate R-5, 24 hrs): 0.25 µg/mL (≈ 0.357 µM); MIC (Rhizopus oryzae [4]; read-out: MIC 100%, isolate R-6, 24 hrs): 0.125 µg/mL (≈ 0.178 µM); MIC 100% (Paeceilomyces variotii): 0.25 gg/m1

Question: For `OC(Cn1cncn1)(Cn1cncn1)c1ccc(F)cc1F` [FLU, Fluconazole, reference compound], which MIC50 (C. parapsilosis; isolate CP-1, 24 hrs) is on record?
Answer: 0.25 µg/mL (≈ 0.816 µM)

Question: And the MIC50 (C. parapsilosis; isolate CP-2, 24 hrs)?
Answer: ≤ 0.125 µg/mL

Question: And the MIC50 (C. parapsilosis; isolate CP-3, 24 hrs)?
Answer: 0.25 µg/mL (≈ 0.816 µM)

Question: What about the MIC50 (C. parapsilosis; isolate CP-4, 24 hrs) of the same compound?
Answer: 0.25 µg/mL (≈ 0.816 µM)

Question: And the MIC50 (C. parapsilosis; isolate CP-5, 24 hrs)?
Answer: ≤ 0.125 µg/mL

Question: And the MIC50 (C. parapsilosis; isolate CP-6, 24 hrs)?
Answer: 16 µg/mL (≈ 52.2 µM)

Question: And the MIC50 (C. parapsilosis; isolate CP-7, 24 hrs)?
Answer: 16 µg/mL (≈ 52.2 µM)

Question: And the MIC50 (C. parapsilosis; isolate QC)?
Answer: 1 µg/mL (≈ 3.27 µM)

Question: And the MIC50 (C. guilliermondii; isolate Cgu-1, 24 hrs)?
Answer: 8 µg/mL (≈ 26.1 µM)

Question: And the MIC50 (C. guilliermondii; isolate Cgu-2, 24 hrs)?
Answer: 2 µg/mL (≈ 6.53 µM)

Question: What about the MIC50 (C. guilliermondii; isolate Cgu-3, 24 hrs) of the same compound?
Answer: 1 µg/mL (≈ 3.27 µM)

Question: What about the MIC50 (C. guilliermondii; isolate Cgu-4, 24 hrs) of the same compound?
Answer: 1 µg/mL (≈ 3.27 µM)

Question: What about the MIC50 (C. guilliermondii; isolate Cgu-5, 24 hrs) of the same compound?
Answer: 2 µg/mL (≈ 6.53 µM)

Question: And the MIC50 (C. guilliermondii; isolate Cgu-6, 24 hrs)?
Answer: 8 µg/mL (≈ 26.1 µM)

Question: And the MIC50 (C. guilliermondii; isolate Cgu-7, 24 hrs)?
Answer: 4 µg/mL (≈ 13.1 µM)

Question: What about the MIC50 (C. glabrata; isolate CG-1, 24 hrs) of the same compound?
Answer: 16 µg/mL (≈ 52.2 µM)

Question: And the MIC50 (C. glabrata; isolate CG-2, 24 hrs)?
Answer: 16 µg/mL (≈ 52.2 µM)

Question: And the MIC50 (C. glabrata; isolate CG-3, 24 hrs)?
Answer: 32 µg/mL (≈ 104 µM)

Question: And the MIC50 (C. glabrata; isolate CG-4, 24 hrs)?
Answer: 32 µg/mL (≈ 104 µM)

Question: And the MIC50 (C. glabrata; isolate CG-5, 24 hrs)?
Answer: 16 µg/mL (≈ 52.2 µM)

Question: What about the MIC50 (C. glabrata; isolate CG-6, 24 hrs) of the same compound?
Answer: 2 µg/mL (≈ 6.53 µM)

Question: What about the MIC50 (C. glabrata; isolate CG-7, 24 hrs) of the same compound?
Answer: 2 µg/mL (≈ 6.53 µM)

Question: And the MIC50 (C. glabrata; isolate CG-8, 24 hrs)?
Answer: 2 µg/mL (≈ 6.53 µM)

Question: What about the MIC50 (C. glabrata; isolate CG-9, 24 hrs) of the same compound?
Answer: 2 µg/mL (≈ 6.53 µM)

Question: What about the MIC50 (C. glabrata; isolate CG-10, 24 hrs) of the same compound?
Answer: 4 µg/mL (≈ 13.1 µM)

Question: What about the “reduction of fungal viability” value (Histoplasma capsulatum; then growth in absence of drug) of the same compound?
Answer: did not significantly reduce fungal viability

Question: What about the “viability staining of yeasts” value (Histoplasma capsulatum; ethidium bromide / fluorescein staining) of the same compound?
Answer: only fungistatic

Question: What about the MIC50 (C. krusei) of the same compound?
Answer: 8 µg/mL (≈ 26.1 µM)

Question: What about the MIC50 (Cryptococcus neoformans; isolate CN-1, 72 hrs) of the same compound?
Answer: 4 µg/mL (≈ 13.1 µM)

Question: And the MIC50 (Cryptococcus neoformans; isolate CN-2, 72 hrs)?
Answer: 12 µg/mL (≈ 39.2 µM)

Question: What about the MIC50 (Cryptococcus neoformans; isolate CN-3, 72 hrs) of the same compound?
Answer: 64 µg/mL (≈ 209 µM)

Question: What does the source list for `N=C(N)c1ccc(OCCCCCOc2ccc(C(=N)N)cc2)cc1` [Pent., pentamidine isethionate, reference compound]?
Answer: Pm % Reduction in ATP/Vehicle Control (Pneumocystis murina; Table 3, 1 μg/ml, 24 hours): 72.06%; Pm % Reduction in ATP/Vehicle Control (Pneumocystis murina; Table 3, 1 μg/ml, 48 hours): 87.94%; Pm % Reduction in ATP/Vehicle Control (Pneumocystis murina; Table 3, 1 μg/ml, 72 hours): 93.85%; Pm % Reduction in ATP/Vehicle Control (Pneumocystis carinii; Table 2, 1 μg/ml, 24 hours): 74.18%; Pm % Reduction in ATP/Vehicle Control (Pneumocystis carinii; Table 2, 1 μg/ml, 48 hours): 97.06%; Pm % Reduction in ATP/Vehicle Control (Pneumocystis carinii; Table 2, 1 μg/ml, 72 hours): 97.47%

Question: How did the “Pm % Reduction in ATP/Vehicle Control” value (Pneumocystis murina; Table 3, 10 μg/ml, 24 hours) turn out when `CC1(C)S[C@@H]2[C@H](NC(=O)[C@H](N)c3ccccc3)C(=O)N2[C@H]1C(=O)O` [Ampicillin, ampicillin, reference compound] was run?
Answer: 0%

Question: And the “Pm % Reduction in ATP/Vehicle Control” value (Pneumocystis murina; Table 3, 10 μg/ml, 48 hours)?
Answer: 0%

Question: What about the “Pm % Reduction in ATP/Vehicle Control” value (Pneumocystis murina; Table 3, 10 μg/ml, 72 hours) of the same compound?
Answer: 0%

Question: What about the “Pm % Reduction in ATP/Vehicle Control” value (Pneumocystis carinii; Table 2, 10 μg/ml, 24 hours) of the same compound?
Answer: 0%

Question: And the “Pm % Reduction in ATP/Vehicle Control” value (Pneumocystis carinii; Table 2, 10 μg/ml, 48 hours)?
Answer: 0%

Question: What about the “Pm % Reduction in ATP/Vehicle Control” value (Pneumocystis carinii; Table 2, 10 μg/ml, 72 hours) of the same compound?
Answer: 0%

Question: With `C[C@@H]1[C@H](O)[C@@H](C)/C=C/C=C/C=C/C=C/C=C/C=C/C=C/[C@H](O[C@@H]2O[C@H](C)[C@@H](O)[C@H](N)[C@@H]2O)C[C@@H]2O[C@](O)(C[C@@H](O)C[C@@H](O)[C@H](O)CC[C@@H](O)C[C@@H](O)CC(=O)O[C@H]1C)C[C@H](O)[C@H]2C(=O)O` [amphotericin B] as the compound, how does the “recovery of mycelia growth” value (Aspergillus fumigatus) read?
Answer: no viable Aspergillus fumigatus mycelia
